Laboratory results published in US5104862A, “Bethalactam elastase inhibitors containing phosphorous acid derivatives at the 4-position of the 2-azetidinone” (Merck & Co., Inc., priority 1991, dated 1992).

Molecular target: T1, human polymorphonuclear leukocyte elastase (human granulocyte elastase) (Homo sapiens, UniProt P08246)
T1 construct: Crude extract of human polymorphonuclear leukocytes (PMN) containing elastase activity; endogenous in cells; host or cells: human polymorphonuclear leukocytes (crude extract)
T1 sequence (P08246 30-267): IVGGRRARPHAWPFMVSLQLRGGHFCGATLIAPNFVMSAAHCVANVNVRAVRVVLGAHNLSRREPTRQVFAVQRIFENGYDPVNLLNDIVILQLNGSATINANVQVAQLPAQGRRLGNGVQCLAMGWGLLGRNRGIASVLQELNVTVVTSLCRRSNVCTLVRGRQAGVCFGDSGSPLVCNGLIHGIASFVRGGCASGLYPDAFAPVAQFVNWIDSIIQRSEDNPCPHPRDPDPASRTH
Assay: Enzyme assay for inhibition of human polymorphonuclear leukocyte elastase via hydrolysis of Boc-AAPAN or Boc-AAPVN
Type: biochemical
Details: crude extract of human PMN; 0.2 mM Boc-AAPAN or Boc-AAPVN; 0.05M TES buffer pH 7.5; read-out: kobs /I, second order rate constant for inactivation of the enzyme
Procedure: Enzyme Assays for the Inhibition of Human Polymorphonuclear Leukocyte Elastase Via Hydrolysis of N-t-Boc-alanyl-alanyl-prolyl-alanine-p-nitroanilide (Boc-AAPAN) or N-t-Boc-alanyl-prolyl-valine-p-nitroanilide (Boc-AAPVN) Reagent
0.05M TES (N-tris[hydroxymethyl]methyl-2-amino-ethanesulfonic acid) Buffer, pH 7.5.
0.2 mM Boc-AAPAN or Boc-AAPVN.
To prepare substrate, the solid was first dissolved in 10.0 ml DMSO. Buffer at pH 7.5 was then added to a final volume of 100 ml.
Crude extract of human polymorphonuclear leukocytes (PMN) containing elastase activity.
Inhibitors (azetidinones) to be tested dissolved in DMSO just before use.
To 1.0 ml of 0.2 mM Boc-AAPAN in a cuvette, 0.01-0.1 ml of DMSO with or without inhibitor was added. After mixing, a measurement was taken at 410 mμ to detect any spontaneous hydrolysis due to presence of test compound. 0.05 Milliliters of PMN extract was then added and the ΔOD/min at 410 mμ was measured and recorded. Beckman model 35 spectrophotometer was used.
The elastase activity in the crude PMN extract may vary from one preparation to another. A control of each new batch is run, and the volume added in the assay procedure is adjusted according to activity.

| Structure (SMILES) | kinact/KI [M⁻¹ s⁻¹] |
| --- | --- |
| CCC[C@@H](NC(=O)N1C(=O)C(CC)(CC)[C@@H]1Oc1ccc(CP(=O)(O)c2ccccc2)cc1)c1ccc(C)cc1 [Example 2] | 1.2e+06 |
| C=CCP(=O)(Cc1ccc(O[C@@H]2N(C(=O)N[C@H](CCC)c3ccc(C)cc3)C(=O)C2(CC)CC)cc1)OCC (stereo partly drawn) [Example 3, (4S)-3,3-Diethyl-1-[(R)-α-n-propyl(4-methyl)-benzylaminocarbonyl]-4-[4-(allyl(ethoxyphosphinyl)methyl)phenoxy]-azetidin-2-one] | 1.3e+06 |

Second part, the molecule after the results:

| kinact/KI [M⁻¹ s⁻¹] | Structure (SMILES) |
| --- | --- |
| 740000 | C=CCP(=O)(O)Cc1ccc(O[C@@H]2N(C(=O)N[C@H](CCC)c3ccc(C)cc3)C(=O)C2(CC)CC)cc1 [Example 4, (4S)-3,3-Diethyl-1-[(R)-α-n-propyl(4-methyl)-benzylaminocarbonyl]-4-[4-(allyl(hydroxyphosphinyl)methyl)phenoxy]-azetidin-2-one] |
| 420000 | CCC[C@@H](NC(=O)N1C(=O)C(CC)(CC)[C@@H]1Oc1ccc(CP(C)(=O)O)cc1)c1ccc(C)cc1 [Example 6, (4S)-3,3-Diethyl-1-[(R)-α-n-propyl(4-methyl)-benzylaminocarbonyl]-4-[4-(methyl(hydroxyphosphinyl)methyl)phenoxy]-azetidin-2-one] |
| 910000 | CCC[C@@H](NC(=O)N1C(=O)C(CC)(CC)[C@@H]1Oc1ccc(CP(=O)(O)CCC)cc1)c1ccc(C)cc1 [Example 8, (4S)-3,3-Diethyl-1-[(R)-α-n-propyl(4-methyl)-benzylaminocarbonyl]-4-[4-(n-propyl(hydroxyphosphinyl)methyl)-phenoxy]-azetidin-2-one] |
